What was measured:
SJL-derived LNC = test: In vivo inhibition of proliferation of SJL LNC to the human 16/6Id mAb; design: species or system mice; settings: maximum % inhibition; 200 μg/mouse s.c. in PBS concomitant with priming
Procedure: Because our aim was to test the inhibitory capacity of the peptides based on the CDR of the human 16/6Id autoantibody, it was of importance to find out whether peptides hCDR1 and hCDR3 are capable of inhibiting the priming to the whole molecule of the human 16/6Id mAb. To this end, BALB/c and SJL mice were primed with the human 16/6Id mAb (2 μg/mouse) in CFA intradermally in the hind footpads. The priming was done concomitant with the s.c. administration in PBS of 200 μg/mouse of hCDR1 to groups of BALB/c mice and of hCDR3 to SJL mice. Ten days following immunization, the mice were sacrificed and their LNCs were tested in vitro for their ability to proliferate to different concentrations (0.1-10 μg/well) of the human anti-DNA 16/6Id mAb.
The results are presented as maximum % inhibition of the proliferation to the immunizing human 16/6Id mAb of lymph node cells of mice immunized and treated with the peptides hCDR1 and hCDR3 as compared with mice that were immunized with the 16/6Id mAb but were not treated with the peptides.

SJL-derived LNCs = test: In vivo inhibition of proliferation of LNC of SJL mice immunized with mCDR3; settings: maximum % inhibition; 200 μg s.c. in PBS concomitant with immunization; LNC tested ten days later
Procedure: (§1) To this end, BALB/c and SJL mice were immunized with mCDR1 and mCDR3, respectively. The immunizing murine peptides were injected (10 μg/mouse) in CFA intradermally in the hind footpads. Concomitant with the immunization, groups of BALB/c mice were injected subcutaneously (s.c.) with 200 μg in PBS of hCDR1 and groups of SJL mice were similarly injected with hCDR3. Ten days after the immunization, mice were sacrificed and their lymph nodes were harvested and the cells were tested for their ability to proliferate following triggering with the immunizing peptides. Briefly, LNCs of immunized mice (0.5×10^6/well) were cultured (in triplicates) in the presence of different concentrations (1-20 μg/well) of the murine immunizing peptides in enriched RPMI-1640 medium supplemented with 1% normal mouse serum. Following four days of incubation, ^3H-thymidine was added for additional 16 hours. Cells were then harvested and radioactivity was counted using a β-counter.
(§2) The inhibition was calculated based on the proliferation of LNCs of mice that were not treated with the inhibitory peptides hCDR1 and hCDR3. It can be seen that hCDR1 and hCDR3 were capable of inhibiting the proliferative responses to the immunizing murine CDR peptides.

[1] = system: splenocytes of (NZB×NZW)F1 mice; test: Cytokine pattern in supernatants of splenocyte cultures of treated (NZB×NZW)F1 mice (ELISA); assay type: in vivo; settings: end of treatment (10 weekly s.c. injections, 300 μg)
Procedure: Induction and treatment of experimental SLE. In order to induce experimental SLE, BALB/c mice were immunized with 1-2 μg of the human mAb 16/6Id and boosted 3 weeks later. For the prevention of experimental SLE, mice were given hCDR1 or hCDR3 (mCDR1 or revmCDR1 as control peptide in Example 12) intravenously (i.v.) or s.c. concomitant with the immunization, and were injected weekly thereafter for 5 weeks. Treatment of an established disease started three and a half months following disease induction with the 16/6Id, when clinical manifestations were already observed. In Example 12, mice received 10 weekly injections (i.v. or s.c.) of mCDR1 or revmCDR1 at a dose of 100 μg/mouse. Prevention and treatment of SLE-like disease in (NZB×NZW)F1 mice with the hCDR1 or mCDR1 peptide. For prevention of SLE, mice at the age of 2 months, before disease manifestations are observed, were injected s.c. with hCDR1 (or mCDR1 in Example 12, 250 μg/mouse) once a week for 10 weeks. To treat an established disease, mice at the age of 5-7 months were injected with hCDR1 (in Example 12, mCDR1 s.c., 250 μg/mouse) once a week for 10 weeks. Proliferative Responses. PBL were isolated from heparinized venous blood by Ficoll-Hypaque (Pharmacia) density-gradient centrifugation. […] Results are expressed as the mean thymidine incorporation in counts per minute (CPM) of triplicate culture±SD, or as stimulation index (S.I.; the ratio of mean CPM at the optimal concentration of the human 16/6Id to the mean CPM in the presence of medium alone). […] TGF-β was determined by an ELISA. […] The substrate solution used was TMB color Reagent (Helix Diagnostics, West Sacramento, Calif.), and enzyme activity was evaluated by using 570- and 630-nm filters. […] Proteinuria was measured semiquantitatively by using Combistix kit (Ames Division, Bayer Diagnostics, Newbury, U.K.). White blood cells (WBC, for leukopenia) were counted after a 10-fold dilution of heparinized blood in distilled water containing 1% acetic acid (vol/vol). […]

BALB/c-derived LNCs = test: In vivo inhibition of proliferation of LNC of BALB/c mice immunized with mCDR1; settings: maximum % inhibition; 200 μg s.c. in PBS concomitant with immunization; LNC tested ten days later
Procedure: as §1, §2

Row | Sequence | % Inhibition of the proliferation of SJL-derived LNC to the human 16/6Id mAb (SJL-derived LNC) [%] | % Inhibition of the proliferation of SJL-derived LNCs to mCDR3 (SJL-derived LNCs) [%] | INF-γ in supernatants of Con A-stimulated splenocytes ([1]; FIG. 13A) | TGF-β in supernatants of non-stimulated splenocytes ([1]; FIG. 13C) | IL-10 in supernatants of Con A-stimulated splenocytes ([1]; to a lesser extent, FIG. 13B) | % Inhibition of the proliferation of BALB/c-derived LNCs to mCDR1 (BALB/c-derived LNCs) [%]
1 | YYCARGLLRGGWNDVDYYGMDV (Human) [hCDR3, peptide based on the CDR3 of the heavy chain of the human 16/6Id mAb] | 68 | 55 |  |  |  | 
2 | GYYWSWIRQPPGKGEEWIG (Human) [hCDR1, 19-mer peptide based on the CDR1 of the heavy chain of the human 16/6Id mAb] |  |  | down-regulated | increased secretion | down-regulated | 55
